Measured values reported in the supplement of paper PMC10331698.
± gives the standard deviation of the averaged measurements.

Experiments:
Test in all cases: level (log10 ratio to DMSO vehicle control); higher = higher biomarker level / cell amount than vehicle control
[1] = compound: C=CC(=O)OCC(F)(F)C(F)(F)C(F)(F)C(F)(F)C(F)(F)C(F)(F)C(F)(F)C(F)F [1H,1H,9H-Perfluorononyl acrylate]; settings: in DMSO
Method: (§1)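 BioMAP Diversity Plus panel of 12 human primary cell co-culture systems (3C, 4H, LPS, SAg, BT, BF4T, BE3C, CASM3C, HDF3CGF, KF3CT, MyoF, Mphg). Compounds were added 1 h before stimulation and left for 24 h (MyoF 48 h; BT 72 h for soluble read-outs or 6 d for IgG). Biomarkers were read by ELISA, cytotoxicity by SRB, PBMC viability and proliferation by Alamar Blue. Each well value was divided by the mean of 8 DMSO control wells on the same plate and log10 transformed; duplicate blinded samples were tested at 4 concentrations.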

[2] = compound: C=CC(=O)OCC(F)(F)C(F)(F)C(F)(F)C(F)(F)COC(=O)C=C [1H,1H,6H,6H-Perfluorohexane-1,6-diol diacrylate]; settings: 6700 nM; in DMSO
Method: as §1

[3] = compound: Cc1ccc(S(=O)(=O)OCC(F)(F)C(F)(F)C(F)(F)C(F)(F)C(F)(F)C(F)F)cc1 [1H,1H,7H-Perfluoroheptyl 4-methylbenzenesulfonate]; settings: in DMSO
Method: as §1

[4] = compound: FC(F)(F)C(F)(F)C(F)(F)C(F)(F)CCI [1H,1H,2H,2H-Perfluorohexyl iodide]; settings: in DMSO
Method: as §1

[5] = compound: FC(F)(F)COC(OCC(F)(F)F)OCC(F)(F)F [tris(Trifluoroethoxy)methane]; settings: in DMSO
Method: as §1

[6] = compound: O=S(=O)(OCC(F)(F)F)C(F)(F)C(F)(F)C(F)(F)C(F)(F)F [2,2,2-Trifluoroethyl perfluorobutanesulfonate]; settings: in DMSO
Method: as §1

[7] = compound: OCC(F)(F)C(F)(F)C(F)(F)C(F)(F)C(F)(F)C(F)(F)C(F)(F)C(F)(F)CO [1H,1H,10H,10H-Perfluorodecane-1,10-diol]; settings: in DMSO
Method: as §1

Test System	level (log10) ([1]; 6700 nM)	level (log10) ([1]; 20000 nM)	level (log10) ([1]; 60000 nM)	level (log10) [2]	level (log10) ([3]; 6700 nM)	level (log10) ([3]; 20000 nM)	level (log10) ([3]; 60000 nM)	level (log10) ([4]; 6700 nM)	level (log10) ([4]; 20000 nM)	level (log10) ([4]; 60000 nM)	level (log10) ([5]; 6700 nM)	level (log10) ([5]; 20000 nM)	level (log10) ([5]; 60000 nM)	level (log10) ([6]; 6700 nM)	level (log10) ([6]; 20000 nM)	level (log10) ([6]; 60000 nM)	level (log10) ([7]; 6700 nM)	level (log10) ([7]; 20000 nM)	level (log10) ([7]; 60000 nM)
BE3C:uPA	-0.0335 ± 0.0092	0.0015 ± 0.0092	-0.0195 ± 0.0035	-0.02 ± 0.014	0.01 ± 0.018	-0.0155 ± 0.019	-0.001 ± 0.0057	-0.001 ± 0.0071	-0.007 ± 0.0071	-0.001 ± 0.0014	0.0075 ± 0.021	-0.004 ± 0.0071	-0.0175 ± 0.00071	-0.001 ± 0.0099	-0.013 ± 0.0014	-0.0135 ± 0.023	-0.008 ± 0.011	-0.0315 ± 0.0021	-0.078
KF3CT:uPA	-0.0285 ± 0.012	-0.005 ± 0.025	-0.0395 ± 0.013	-0.057 ± 0.0057	0.006 ± 0.021	-0.036 ± 0.023	-0.0335 ± 0.022	-0.001 ± 0.02	0.0045 ± 0.013	-0.005 ± 0.0099	-0.0005 ± 0.043	-0.011 ± 0.018	-0.014 ± 0.023	-0.0085 ± 0.0021	-0.043 ± 0.079	-0.075 ± 0.0042	0.007 ± 0.0042	0.009 ± 0.0071	-0.021
KF3CT:CXCL10/IP-10	-0.003 ± 0.024	-0.01 ± 0.017	-0.015 ± 0.0099	-0.0365 ± 0.005	-0.009 ± 0.014	-0.0195 ± 0.0078	-0.016 ± 0.0099	0.012 ± 0.045	0.0205 ± 0.028	0.017 ± 0.05	0.005 ± 0.0042	-0.0045 ± 0.0064	-0.0025 ± 0.005	0.0345 ± 0.022	0.033 ± 0.041	0.031 ± 0.042	-0.006 ± 0.0042	-0.0195 ± 0.0078	-0.104
MyoF:TIMP-1	-0.0205 ± 0.0078	-0.015 ± 0.0085	-0.008 ± 0.03	-0.0015 ± 0.016	-0.0255 ± 0.044	-0.0575 ± 0.069	-0.0375 ± 0.07	0.019 ± 0.041	0.024 ± 0.083	0.021 ± 0.12	-0.0325 ± 0.032	-0.05 ± 0.055	-0.076 ± 0.0028	-0.0305 ± 0.042	-0.0235 ± 0.011	-0.056 ± 0.0099	0.03 ± 0.031	0.078 ± 0.04	0.052
CASM3C:Proliferation	0.03 ± 0.034	0.0175 ± 0.057	-0.03 ± 0.093	-0.0005 ± 0.037	-0.009 ± 0.031	0.035 ± 0.064	-0.0075 ± 0.025	-0.01 ± 0.0071	-0.0155 ± 0.016	-0.0535 ± 0.0064	-0.033 ± 0.021	-0.042 ± 0.0014	0.021 ± 0.027	0.0265 ± 0.0064	-0.018 ± 0.027	-0.026 ± 0.03	-0.011 ± 0.021	-0.0215 ± 0.00071	-0.324
lMphg:CXCL8/IL-8	0.014 ± 0.02	0.0025 ± 0.0064	0.038 ± 0.014	0.0035 ± 0.0092	0.022 ± 0.0057	0	0.022 ± 0.057	-0.0325 ± 0.0035	-0.006 ± 0.0085	0.0355 ± 0.018	-0.0095 ± 0.016	-0.018 ± 0.0042	-0.007 ± 0.044	0.031	0.025 ± 0.018	0.072 ± 0.068	0.03 ± 0.035	0.0055 ± 0.018	-0.19
KF3CT:CXCL8/IL-8	-0.0015 ± 0.0092	0.016 ± 0.0028	0.012 ± 0.033	0.0005 ± 0.021	-0.005 ± 0.0028	-0.103 ± 0.013	-0.04 ± 0.014	0.0135 ± 0.044	0.0355 ± 0.042	0.0315 ± 0.047	0.002 ± 0.011	0.007 ± 0.013	0.012 ± 0.0014	-0.0165 ± 0.0035	0.0045 ± 0.00071	0.017 ± 0.0057	-0.006 ± 0.021	0.0055 ± 0.028	-0.097
CASM3C:CD141/Thrombomodulin	-0.014 ± 0.069	-0.0095 ± 0.0078	-0.0175 ± 0.033	0.0295 ± 0.016	-0.002 ± 0.0014	0.032 ± 0.0085	0.067 ± 0.041	-0.0085 ± 0.021	-0.009 ± 0.014	0.0275 ± 0.049	-0.0075 ± 0.0092	-0.006 ± 0.025	-0.0125 ± 0.019	-0.0045 ± 0.0021	0.008 ± 0.037	0.0045 ± 0.0064	-0.0225 ± 0.028	-0.0335 ± 0.04	0.026
3C:CD54/ICAM-1	-0.009 ± 0.0057	-0.0085 ± 0.012	-0.0105 ± 0.015	-0.028 ± 0.0085	0.0085 ± 0.0021	-0.005 ± 0.0085	-0.01 ± 0.02	-0.01 ± 0.041	-0.027 ± 0.025	-0.009 ± 0.054	0.004 ± 0.0042	-0.0105 ± 0.0064	-0.0145 ± 0.00071	-0.006 ± 0.0028	-0.0105 ± 0.0021	-0.0095 ± 0.0064	-0.01 ± 0.0014	-0.0035 ± 0.005	-0.006
HDF3CGF:CXCL10/IP-10	-0.0105 ± 0.0064	-0.041 ± 0.048	-0.15 ± 0.096	-0.492 ± 0.023	-0.008 ± 0.025	0.0085 ± 0.013	0.006 ± 0.055	0.0045 ± 0.035	-0.0155 ± 0.0064	-0.069 ± 0.02	0.0005 ± 0.0092	-0.002 ± 0.0071	-0.015 ± 0.0057	-0.024 ± 0.0014	-0.058	-0.099 ± 0.0042	-0.0045 ± 0.028	-0.0355 ± 0.0035	-0.578
HDF3CGF:PAI-I	0.0785 ± 0.076	0.025 ± 0.04	0.0165 ± 0.1	-0.074 ± 0.016	-0.004 ± 0.0042	-0.009 ± 0.011	0.0065 ± 0.036	0.002 ± 0.028	0.0045 ± 0.0035	-0.0105 ± 0.044	-0.0115 ± 0.0021	-0.025 ± 0.023	0.0175 ± 0.018	-0.0125 ± 0.0092	-0.02 ± 0.024	-0.021 ± 0.0014	-0.0005 ± 0.0035	0.007 ± 0.0014	-0.564
lMphg:SRB-Mphg	-0.1115 ± 0.00071	-0.082 ± 0.11	0.0085 ± 0.097	-0.0115 ± 0.084	0.033 ± 0.0028	-0.013 ± 0.03	0.0155 ± 0.036	-0.0005 ± 0.03	-0.004 ± 0.031	0.0005 ± 0.025	-0.026 ± 0.013	-0.038 ± 0.044	-0.008 ± 0.027	-0.005 ± 0.0071	-0.019 ± 0.014	-0.024 ± 0.031	0.003 ± 0.028	-0.0625 ± 0.084	-0.775
CASM3C:M-CSF	-0.0225 ± 0.06	0.001 ± 0.031	-0.041 ± 0.071	-0.105 ± 0.016	-0.024 ± 0.0028	-0.0445 ± 0.013	0.007 ± 0.051	-0.013 ± 0.0014	-0.02 ± 0.0014	0.0035 ± 0.049	-0.0565 ± 0.015	-0.03 ± 0.021	0.013 ± 0.037	-0.011 ± 0.0057	0.004 ± 0.0042	0.0365 ± 0.03	-0.052 ± 0.027	-0.054 ± 0.014	-0.065
HDF3CGF:EGFR	-0.019 ± 0.023	0.017 ± 0.0014	0.045 ± 0.013	-0.0155 ± 0.0078	-0.0165 ± 0.016	-0.056 ± 0.0057	-0.034 ± 0.0028	0.0025 ± 0.026	-0.006 ± 0.038	0.015 ± 0.047	-0.0265 ± 0.015	-0.016 ± 0.054	-0.016 ± 0.0085	-0.0215 ± 0.077	-0.022 ± 0.09	0.047 ± 0.03	-0.0015 ± 0.015	0.003 ± 0.023	-0.224
KF3CT:SRB	0.003 ± 0.0014	-0.002 ± 0.0085	0.0045 ± 0.018	0.003 ± 0.0057	-0.0215 ± 0.013	-0.032 ± 0.011	-0.0335 ± 0.0078	-0.013 ± 0.0099	-0.01 ± 0.013	0.0035 ± 0.015	-0.0125 ± 0.00071	-0.0015 ± 0.0035	-0.0035 ± 0.012	-0.001	-0.0045 ± 0.0021	-0.0025 ± 0.0092	-0.0155 ± 0.015	-0.022 ± 0.011	-0.25
